Values joined by “and” are separate entries in the source; they are usually repeats but may differ in a detail not shown here. Equal entries are not always repeated. Toxic doses and inconclusive results are not listed. Cut-off read from the data, not from the text of the source: active = T/C of 150% or more; inactive = T/C below 125%.
Test system: L1210 leukemia ip in BDF1 mice, survival T/C
Test: NCI In Vivo Anticancer Drug Screen. Data for tumor model L1210 Leukemia (intraperitoneal) in B6D2F1 (BDF1) mice
Conditions: endpoint: mean survival time, higher = longer survival
Procedure, shortened: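 Tumor was transplanted into mice, which were then dosed with test compound or vehicle alone. Survival was recorded for each group, and the treated figure was expressed relative to the control figure.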

[1] = dose: 100.0 mg/kg/injection, schedule: Q01DX009 (ip), vehicle: Klucel (hydroxypropylcellulose) (HPC)
[2] = dose: 200.0 mg/kg/injection, schedule: Q01DX009 (ip), vehicle: Klucel (hydroxypropylcellulose) (HPC)
[3] = dose: 400.0 mg/kg/injection, schedule: Q01DX009 (ip), vehicle: Klucel (hydroxypropylcellulose) (HPC)
[4] = dose: 100.0 mg/kg/injection, schedule: Q04DX003 (ip), vehicle: saline
[5] = dose: 200.0 mg/kg/injection, schedule: Q04DX003 (ip), vehicle: saline
[6] = dose: 25.0 mg/kg/injection, schedule: Q01DX009 (ip), vehicle: saline with Tween-80
[7] = dose: 50.0 mg/kg/injection, schedule: Q01DX009 (ip), vehicle: saline with Tween-80
[8] = dose: 400.0 mg/kg/injection, schedule: Q04DX003 (ip), vehicle: saline
[9] = dose: 100.0 mg/kg/injection, schedule: Q01DX009 (ip), vehicle: saline with Tween-80
[10] = dose: 100.0 mg/kg/injection, schedule: Q04DX003 (ip), vehicle: saline with Tween-80
[11] = dose: 200.0 mg/kg/injection, schedule: Q01DX009 (ip), vehicle: saline with Tween-80
[12] = dose: 200.0 mg/kg/injection, schedule: Q04DX003 (ip), vehicle: saline with Tween-80
[13] = dose: 400.0 mg/kg/injection, schedule: Q01DX009 (ip), vehicle: saline with Tween-80
[14] = dose: 400.0 mg/kg/injection, schedule: Q04DX003 (ip), vehicle: saline with Tween-80
[15] = dose: 100.0 mg/kg/injection, schedule: Q04DX002 (ip), vehicle: saline with Tween-80
[16] = dose: 1.25 mg/kg/injection, schedule: Q01DX009 (ip), vehicle: saline
[17] = dose: 12.5 mg/kg/injection, schedule: Q04DX003 (ip), vehicle: saline
[18] = dose: 25.0 mg/kg/injection, schedule: Q04DX003 (ip), vehicle: saline
[19] = dose: 100.0 mg/kg/injection, schedule: Q01DX001 (ip), vehicle: saline
[20] = dose: 200.0 mg/kg/injection, schedule: Q01DX001 (ip), vehicle: saline
[21] = dose: 400.0 mg/kg/injection, schedule: Q01DX001 (ip), vehicle: saline

Measured: T/C

O=C(c1ccccc1Cl)N(Cc1ccccc1)c1ccccc1
inactive: [1] 102 % of control | [2] 103 % of control | [3] 100 % of control

OC[P+](c1ccccc1)(c1ccccc1)c1ccccc1
inactive: [4] 98 % of control | [5] 98 % of control

CCOc1cc(C=Nc2cc(Br)c(OC)c(Br)c2)ccc1N(CCCl)CCCl
inactive: dose: 4.0 mg/kg/injection, schedule: Q01DX009 (ip), vehicle: carboxymethylcellulose (CMC) 106 % of control | dose: 7.0 mg/kg/injection, schedule: Q01DX009 (ip), vehicle: carboxymethylcellulose (CMC) 115 % of control | dose: 8.9 mg/kg/injection, schedule: Q01DX001 (ip), vehicle: carboxymethylcellulose (CMC) 122 % of control | dose: 11.0 mg/kg/injection, schedule: Q01DX009 (ip), vehicle: carboxymethylcellulose (CMC) 109 % of control | dose: 17.0 mg/kg/injection, schedule: Q01DX009 (ip), vehicle: carboxymethylcellulose (CMC) 123 % of control | dose: 133.0 mg/kg/injection, schedule: Q01DX001 (ip), vehicle: carboxymethylcellulose (CMC) 122 % of control

Oc1cc(O)c(CN(CCCl)CCCl)cc1CN(CCCl)CCCl
inactive: dose: 5.5 mg/kg/injection, schedule: Q01DX009 (ip), vehicle: saline 115 % of control | dose: 8.2 mg/kg/injection, schedule: Q01DX009 (ip), vehicle: saline 121 % of control | dose: 18.75 mg/kg/injection, schedule: Q01DX009 (ip), vehicle: saline 103 % of control | [6] 101 % of control | dose: 50.0 mg/kg/injection, schedule: Q01DX001 (ip), vehicle: carboxymethylcellulose (CMC) 115 % of control | [7] 94 % of control | dose: 100.0 mg/kg/injection, schedule: Q01DX001 (ip), vehicle: carboxymethylcellulose (CMC) 115 % of control | [4] 110 % of control | dose: 200.0 mg/kg/injection, schedule: Q01DX001 (ip), vehicle: carboxymethylcellulose (CMC) 108 % of control | [5] 92 % of control | dose: 400.0 mg/kg/injection, schedule: Q01DX001 (ip), vehicle: carboxymethylcellulose (CMC) 123 % of control | [8] 90 % of control | dose: 800.0 mg/kg/injection, schedule: Q04DX003 (ip), vehicle: saline 100 % of control

COC(=O)C1(C(=O)OC)CC1CCl (centres undefined)
inactive: [9] 96 % of control | [10] 101 % of control | [11] 105 % of control | [12] 101 % of control | [13] 93 % of control | [14] 95 % of control

Cc1ccc(NC(=O)COc2c(C)cc(Cl)cc2Cl)cc1
inactive: [15] 107 % of control | dose: 200.0 mg/kg/injection, schedule: Q04DX002 (ip), vehicle: saline with Tween-80 96 % of control | dose: 400.0 mg/kg/injection, schedule: Q04DX002 (ip), vehicle: saline with Tween-80 93 % of control

O=S(=O)(O)C(O)c1cccc2ccccc12 (centres undefined)
inactive: [9] 105 % of control | [11] 105 % of control | [13] 115 % of control

CCC(C)C(NCc1ccccc1)C(=O)O (centres undefined)
inactive: dose: 100.0 mg/kg/injection, schedule: Q01DX001 (ip), vehicle: acetone 108 % of control | [4] 102 % of control | dose: 200.0 mg/kg/injection, schedule: Q01DX001 (ip), vehicle: acetone 97 % of control | [5] 93 % of control | dose: 400.0 mg/kg/injection, schedule: Q01DX001 (ip), vehicle: acetone 90 % of control | [8] 96 % of control

COC1OC(COC(=O)c2ccc([N+](=O)[O-])cc2)C(OC(=O)c2ccc([N+](=O)[O-])cc2)C1OCc1ccccc1 (centres undefined)
inactive: dose: 75.0 mg/kg/injection, schedule: Q01DX001 (ip), vehicle: other 86 % of control | dose: 150.0 mg/kg/injection, schedule: Q01DX001 (ip), vehicle: other 86 % of control | dose: 300.0 mg/kg/injection, schedule: Q01DX001 (ip), vehicle: other 86 % of control and 89 % of control

NCC(c1ccccc1)c1ccccc1
inactive: [16] 103 % of control | [17] 98 % of control | dose: 25.0 mg/kg/injection, schedule: Q01DX009 (ip), vehicle: saline 98 % of control | [18] 98 % of control | dose: 50.0 mg/kg/injection, schedule: Q01DX009 (ip), vehicle: saline 95 % of control | dose: 50.0 mg/kg/injection, schedule: Q04DX003 (ip), vehicle: saline 102 % of control

Cc1ccc(S(=O)(=O)Nc2cc(Cl)c(I)cc2Cl)cc1
inactive: [12] 90 % of control | [14] 101 % of control

O=C(O)C1CCC(=O)N1C(=O)OCc1ccccc1 (centres undefined)
inactive: [10] 100 % of control | [12] 97 % of control | [14] 95 % of control

O=C(O)C(c1ccccc1)(c1ccccc1)c1ccccc1
inactive: dose: 50.0 mg/kg/injection, schedule: Q01DX001 (ip), vehicle: saline 101 % of control | [19] 106 % of control | [20] 103 % of control

Nc1ccc(S(=O)(=O)F)c(Cl)c1
inactive: [19] 102 % of control | [20] 98 % of control | [21] 98 % of control

CCCC/C(=N\NC(N)=S)c1ccc(F)cc1
inactive: dose: 8.0 mg/kg/injection, schedule: Q01DX Z (ip), vehicle: methylcellulose (MC) 95 % of control | dose: 15.0 mg/kg/injection, schedule: Q01DX Z (ip), vehicle: methylcellulose (MC) 89 % of control | dose: 30.0 mg/kg/injection, schedule: Q01DX Z (ip), vehicle: methylcellulose (MC) 98 % of control | dose: 30.0 mg/kg/injection, schedule: Q01DX Z (oral), vehicle: methylcellulose (MC) 86 % of control | dose: 60.0 mg/kg/injection, schedule: Q01DX Z (ip), vehicle: methylcellulose (MC) 87 % of control

Brc1ccc(Br)c(-c2nnc(-c3cccc4ccccc34)o2)c1
inactive: [19] 86 % of control

CCCCOB1OC(C)CC(C)(C)O1 (centres undefined)
inactive: [19] 106 % of control | [20] 97 % of control | [21] 99 % of control

C=C1CC(C)(c2ccc(S(=O)(=O)N3CCCC3)cc2)OC1=O (centres undefined)
inactive: dose: 18.0 mg/kg/injection, schedule: Q01DX009 (ip), vehicle: Klucel (hydroxypropylcellulose) (HPC) 108 % of control | dose: 37.5 mg/kg/injection, schedule: Q01DX009 (ip), vehicle: Klucel (hydroxypropylcellulose) (HPC) 95 % of control | dose: 75.0 mg/kg/injection, schedule: Q01DX009 (ip), vehicle: Klucel (hydroxypropylcellulose) (HPC) 104 % of control | dose: 87.5 mg/kg/injection, schedule: Q01DX009 (ip), vehicle: Klucel (hydroxypropylcellulose) (HPC) 104 % of control

CCc1cc2c(cc1C(=O)CBr)C(C)(C)CCC2(C)C
inactive: dose: 6.25 mg/kg/injection, schedule: Q01DX009 (ip), vehicle: saline with Tween-80 103 % of control | dose: 12.5 mg/kg/injection, schedule: Q01DX009 (ip), vehicle: saline with Tween-80 109 % of control | [17] 100 % of control | [18] 102 % of control

CC(=O)OC1CCC2(C)C3=CCC4(C)C(C(C)/C=C\C(C)C(C)C)CCC4C34C=CC2(C1)C1C(=O)OC(=O)C14 (centres undefined)
inactive: dose: 25.0 mg/kg/injection, schedule: Q04DX002 (ip), vehicle: saline with Tween-80 98 % of control | dose: 50.0 mg/kg/injection, schedule: Q04DX002 (ip), vehicle: saline with Tween-80 90 % of control | [15] 94 % of control

CS(=O)(=O)OCC(OS(C)(=O)=O)C(COS(C)(=O)=O)OS(C)(=O)=O (centres undefined)
inactive: [9] 91 % of control | [10] 92 % of control | [11] 100 % of control | [12] 96 % of control | [13] 96 % of control | [14] 96 % of control

CC1CCS(=O)(=O)CC1.[Cl][Hg][Cl]
inactive: dose: 0.31 mg/kg/injection, schedule: Q01DX009 (ip), vehicle: saline 95 % of control | dose: 0.62 mg/kg/injection, schedule: Q01DX009 (ip), vehicle: saline 86 % of control | [16] 91 % of control

CCN(CC)c1ccc(/C=C/C(=O)c2ccc(N(CC)CC)cc2)cc1
inactive: [1] 94 % of control | [2] 97 % of control | [3] 97 % of control

COc1cc(C2NC(=S)NC2=S)ccc1O (centres undefined)
inactive: [6] 104 % of control | dose: 25.0 mg/kg/injection, schedule: Q04DX003 (ip), vehicle: saline with Tween-80 94 % of control | [7] 96 % of control | dose: 50.0 mg/kg/injection, schedule: Q04DX003 (ip), vehicle: saline with Tween-80 92 % of control | [10] 94 % of control and 98 % of control
